From paper PMC7529893, “Structural basis for substrate recognition and chemical inhibition of oncogenic MAGE ubiquitin ligases” (Nature Communications, 2020) come the findings set out here.

The structures appear in SMILES notation.

The target in this test is T1, MAGE-A11:PCF11 interaction (GST-MAGE-A11 and FAM-PCF11_4) (Homo sapiens, UniProt P43364).
T1 construct: GST-MAGE-A11 MHD (human MAGE-A11 MHD amino acid 218-429); made in house; host or cells: E. coli BL21(DE3)
T1 sequence (P43364 218-429): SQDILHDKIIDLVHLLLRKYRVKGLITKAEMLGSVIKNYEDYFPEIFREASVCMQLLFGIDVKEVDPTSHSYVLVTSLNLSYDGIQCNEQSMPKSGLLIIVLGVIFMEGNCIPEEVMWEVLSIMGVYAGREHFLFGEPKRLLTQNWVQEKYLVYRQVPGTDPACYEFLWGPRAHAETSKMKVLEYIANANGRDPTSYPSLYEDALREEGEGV
The test is described as follows: TR-FRET primary / single point screen at 15 µM. The class given is binding. The essentials: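 Single-point screen at 15 µM final compound in 50 mM Tris pH 7.5, 20 mM MgCl2, 0.1 mg/ml BSA, 1 mM DTT, with 200 nM FAM-PCF11_4, 5 nM Tb-anti-GST and 5 nM GST-MAGE-A11. After 90 min at room temperature, the 520/490 nm TR-FRET ratio (340 nm excitation) gave %Inhibition against no-MAGE-A11 and DMSO controls.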
A general note: In TR-FRET formats the signal depends on donor and acceptor labels being close together.

Setting [1] is: single point TR-FRET screening of 797 quinoline compounds against MAGE-A11:PCF11.
[2] abbreviates: single point TR-FRET screening of quinoline compounds against MAGE-A11:PCF11, 15 µM.

`O=[N+]([O-])c1ccccc1CN(CCCCNc1ccnc2cc(Cl)ccc12)Cc1ccccc1` [SJ000361200]: the “percent inhibition (TR-FRET)” value under setting [1] turned out to be 17.2064.

Regarding `O=[N+]([O-])c1cccc(CN(CCCCNc2ccnc3cc(Cl)ccc23)Cc2ccccc2)c1` [SJ000361201], the “percent inhibition (TR-FRET)” value under setting [1] came to 24.3707.

In the case of `O=[N+]([O-])c1ccc(CN(CCCCNc2ccnc3cc(Cl)ccc23)Cc2ccccc2)cc1` [SJ000361202], the “percent inhibition (TR-FRET)” value under setting [1] was 15.2459.

For `O=C(O)c1ccccc1CN(CCCCNc1ccnc2cc(Cl)ccc12)Cc1ccccc1` [SJ000361203], under setting [1], the “percent inhibition (TR-FRET)” value stood at 4.099.

Consider `Clc1ccc2c(NCCCCN(Cc3ccccc3)Cc3cccc4ccccc34)ccnc2c1` [SJ000361204], for which the “percent inhibition (TR-FRET)” value under setting [1] is 26.4906.

Regarding `Clc1ccc2c(NCCCCN(Cc3ccccc3)Cc3ccc4ccccc4c3)ccnc2c1` [SJ000361205], under setting [1], the “percent inhibition (TR-FRET)” value is 24.6356.

Turning to `Cc1cccc(CN(CCCCNc2ccnc3cc(Cl)ccc23)Cc2ccccc2)c1` [SJ000361206], the “percent inhibition (TR-FRET)” value under setting [1] was found to be 29.5379.

On to `Clc1ccc(CN(CCCCNc2ccnc3cc(Cl)ccc23)Cc2ccccc2)c(Cl)c1` [SJ000361207], for which, under setting [1], the “percent inhibition (TR-FRET)” value was 35.4339.

Turning to `CCC(C)CN(CCCCNc1ccnc2cc(Cl)ccc12)Cc1ccccc1` (stereo not shown) [SJ000361208], the “percent inhibition (TR-FRET)” value under setting [1] is on record as 35.3677.

Regarding `Cc1ccc(C)c(CN(CCCCNc2ccnc3cc(Cl)ccc23)Cc2ccccc2)c1` [SJ000361209], under setting [1], the “percent inhibition (TR-FRET)” value is given as 32.6515.

For the molecule `COc1cccc(CN(CCCCNc2ccnc3cc(Cl)ccc23)Cc2ccccc2)c1` [SJ000361210], the “percent inhibition (TR-FRET)” value under setting [1] was 11.7175.

Regarding `Clc1ccc2c(NCCCCN(CCc3ccccc3)Cc3ccccc3)ccnc2c1` [SJ000361211], the “percent inhibition (TR-FRET)” value under setting [1] amounted to 23.3769.

In the case of `CCCCCCN(CCCCNc1ccnc2cc(Cl)ccc12)Cc1ccccc1` [SJ000361212], the “percent inhibition (TR-FRET)” value under setting [1] amounted to 23.5778.

In the case of `CCCN(CCC)CCCNc1ccnc2cc(C(F)(F)F)ccc12` [SJ000361250], the “percent inhibition (TR-FRET)” value under setting [2] turned out to be 15.6779.

For `CCCN(CCCNc1ccnc2cc(C(F)(F)F)ccc12)Cc1ccncc1` [SJ000361251], the “percent inhibition (TR-FRET)” value under setting [2] is recorded as 17.4864.

In the case of `CCCN(CCCNc1ccnc2cc(C(F)(F)F)ccc12)Cc1ccccn1` [SJ000361252], the “percent inhibition (TR-FRET)” value under setting [2] amounted to 15.1623.

For the molecule `CCCN(CCCNc1ccnc2cc(C(F)(F)F)ccc12)Cc1cccs1` [SJ000361253], the “percent inhibition (TR-FRET)” value under setting [2] is given as 19.5346.

Turning to `CCCN(CCCNc1ccnc2cc(C(F)(F)F)ccc12)Cc1ccsc1` [SJ000361254], under setting [2], the “percent inhibition (TR-FRET)” value is on record as 28.8755.

In the case of `CCCN(CCCNc1ccnc2cc(C(F)(F)F)ccc12)Cc1ccc[nH]1` [SJ000361255], under setting [2], the “percent inhibition (TR-FRET)” value is given as 30.6641.

Turning to `CCCN(CCCNc1ccnc2cc(C(F)(F)F)ccc12)Cc1ccccc1` [SJ000361256], the “percent inhibition (TR-FRET)” value under setting [2] is 28.8195.

As for `CCCN(CCCNc1ccnc2cc(C(F)(F)F)ccc12)Cc1ccccc1O` [SJ000361257], the “percent inhibition (TR-FRET)” value under setting [2] is 26.5044.

Take `CCCN(CCCNc1ccnc2cc(C(F)(F)F)ccc12)Cc1ccc(C)s1` [SJ000361258]: the “percent inhibition (TR-FRET)” value under setting [2] was 19.0825.

Take `CCCN(CCCNc1ccnc2cc(C(F)(F)F)ccc12)Cc1ccccc1C(F)(F)F` [SJ000361259]: the “percent inhibition (TR-FRET)” value under setting [2] is given as 4.988.

For the molecule `CCCN(CCCNc1ccnc2cc(C(F)(F)F)ccc12)Cc1cccc(OC)c1O` [SJ000361260], under setting [2], the “percent inhibition (TR-FRET)” value came to 15.4935.

`CCCN(CCCNc1ccnc2cc(C(F)(F)F)ccc12)Cc1ccc(C)o1` [SJ000361261]: under setting [2], the “percent inhibition (TR-FRET)” value was 23.9069.

For `CCCN(CCCNc1ccnc2cc(C(F)(F)F)ccc12)Cc1c(F)cccc1OC` [SJ000361262], the “percent inhibition (TR-FRET)” value under setting [2] is 29.228.

As to `CCCN(CCCNc1ccnc2cc(C(F)(F)F)ccc12)Cc1cc(OC)ccc1O` [SJ000361263], the “percent inhibition (TR-FRET)” value under setting [2] amounted to 25.2582.

As to `CCCN(CCCNc1ccnc2cc(C(F)(F)F)ccc12)Cc1c(C)cc(C)cc1C` [SJ000361264], the “percent inhibition (TR-FRET)” value under setting [2] is reported as 19.9321.

As for `CCCN(CCCNc1ccnc2cc(C(F)(F)F)ccc12)Cc1ccco1` [SJ000361265], the “percent inhibition (TR-FRET)” value under setting [2] is 24.1057.

Turning to `CCCN(CCCNc1ccnc2cc(C(F)(F)F)ccc12)CC1CC1` [SJ000361266], under setting [2], the “percent inhibition (TR-FRET)” value turned out to be 48.1534.

With `CCCN(CCCNc1ccnc2cc(C(F)(F)F)ccc12)Cc1ccoc1` [SJ000361267], the “percent inhibition (TR-FRET)” value under setting [2] amounted to 28.5489.

Regarding `CCCN(CCCNc1ccnc2cc(C(F)(F)F)ccc12)CC1CCCCC1` [SJ000361268], the “percent inhibition (TR-FRET)” value under setting [2] was found to be 33.314.

Regarding `CCCN(CCCNc1ccnc2cc(C(F)(F)F)ccc12)CC(CC)CC` [SJ000361269], the “percent inhibition (TR-FRET)” value under setting [2] is listed as 30.6641.

For the molecule `CCCN(CCCNc1ccnc2cc(C(F)(F)F)ccc12)Cc1ccc2c(c1)OCO2` [SJ000361270], the “percent inhibition (TR-FRET)” value under setting [2] amounted to 5.623.

Regarding `CCCCCN(CCC)CCCNc1ccnc2cc(C(F)(F)F)ccc12` [SJ000361271], under setting [2], the “percent inhibition (TR-FRET)” value amounted to 30.9303.

For `CCCN(CCCNc1ccnc2cc(C(F)(F)F)ccc12)Cc1ccc(F)c(F)c1` [SJ000361272], the “percent inhibition (TR-FRET)” value under setting [2] is 13.8395.

`CCCN(CCCNc1ccnc2cc(C(F)(F)F)ccc12)Cc1ccc(OC)cc1` [SJ000361273]: the “percent inhibition (TR-FRET)” value under setting [2] came to 22.8956.

As to `CCCN(CCCNc1ccnc2cc(C(F)(F)F)ccc12)Cc1ccccc1F` [SJ000361274], the “percent inhibition (TR-FRET)” value under setting [2] was 19.2187.

In the case of `CCCCCN(CCCCC)CC(=O)Nc1c2c(nc3ccccc13)CCC2` [SJ000487033], the “percent inhibition (TR-FRET)” value under setting [1] is -68.0728.

Take `COC(=O)CN1CCN(c2cc(C)nc3ccccc23)C(C)C1=O` (stereo not shown) [SJ000516812]: under setting [1], the “percent inhibition (TR-FRET)” value came to 3.503.

Take `Clc1ccc2c(N3CCN(CCCN4CCN(c5ccnc6cc(Cl)ccc56)CC4)CC3)ccnc2c1` [SJ000518980]: under setting [1], the “percent inhibition (TR-FRET)” value is -2.9894.

With `Cc1[nH]cnc1CN(CCCCNc1ccnc2cc(Cl)ccc12)Cc1ccccc1` [SJ000520428], under setting [1], the “percent inhibition (TR-FRET)” value came to 15.1059.

Turning to `COC(=O)CCCCCN(CCCNc1ccnc2cc(Cl)ccc12)Cc1ccccc1` [SJ000520429], the “percent inhibition (TR-FRET)” value under setting [2] is 17.1364.

`Clc1ccc2c(NCCCN(Cc3ccccc3)Cc3ccc4[nH]ccc4c3)ccnc2c1` [SJ000520430]: under setting [2], the “percent inhibition (TR-FRET)” value worked out at 66.4274.

As to `Cn1ccnc1CN(CCCNc1ccnc2cc(Cl)ccc12)Cc1ccccc1` [SJ000520431], under setting [2], the “percent inhibition (TR-FRET)” value amounted to 15.361.

As to `COC(=O)CCCCCN(CCCCNc1ccnc2cc(Cl)ccc12)Cc1ccccc1` [SJ000520432], the “percent inhibition (TR-FRET)” value under setting [1] stood at 23.5757.

Consider `Clc1ccc2c(NCCCN(Cc3ccccc3)Cc3c[nH]c4ccccc34)ccnc2c1` [SJ000520433], for which the “percent inhibition (TR-FRET)” value under setting [2] turned out to be 40.1907.

As for `Clc1ccc2c(NCCCCN(Cc3ccccc3)Cc3ccc4[nH]ccc4c3)ccnc2c1` [SJ000520434], the “percent inhibition (TR-FRET)” value under setting [1] turned out to be 69.4381.

`Cn1ccnc1CN(CCCCNc1ccnc2cc(Cl)ccc12)Cc1ccccc1` [SJ000520435]: the “percent inhibition (TR-FRET)” value under setting [1] is 5.888.

`Clc1ccc2c(NCCCCN(Cc3ccccc3)Cc3cccc4c3OCO4)ccnc2c1` [SJ000520436]: the “percent inhibition (TR-FRET)” value under setting [1] came to 21.6545.

For `COc1ccc(CN(CCCNc2ccnc3cc(Cl)ccc23)Cc2ccccc2)cc1F` [SJ000520437], under setting [2], the “percent inhibition (TR-FRET)” value is 23.6478.

On to `COc1ccc(CN(CCCCNc2ccnc3cc(Cl)ccc23)Cc2ccccc2)cc1F` [SJ000520438], for which the “percent inhibition (TR-FRET)” value under setting [1] is reported as 13.1455.

As to `Cn1cc(CN(CCCNc2ccnc3cc(Cl)ccc23)Cc2ccccc2)c2ccccc21` [SJ000520439], under setting [2], the “percent inhibition (TR-FRET)” value is -9.311.

For the molecule `Cn1cc(CN(CCCCNc2ccnc3cc(Cl)ccc23)Cc2ccccc2)c2ccccc21` [SJ000520440], the “percent inhibition (TR-FRET)” value under setting [1] was -14.3502.

Take `COc1ccc(F)c(CN(CCCCNc2ccnc3cc(Cl)ccc23)Cc2ccccc2)c1` [SJ000520441]: the “percent inhibition (TR-FRET)” value under setting [1] is reported as 14.5458.

Turning to `CCc1ccc(CN(CCCNc2ccnc3cc(Cl)ccc23)Cc2ccccc2)cc1` [SJ000520442], the “percent inhibition (TR-FRET)” value under setting [2] came out at 18.8867.

Consider `CCc1ccc(CN(CCCCNc2ccnc3cc(Cl)ccc23)Cc2ccccc2)cc1` [SJ000520443], for which, under setting [1], the “percent inhibition (TR-FRET)” value worked out at 29.9089.

Turning to `COc1ccc(C(F)(F)F)cc1CN(CCCCNc1ccnc2cc(Cl)ccc12)Cc1ccccc1` [SJ000520444], the “percent inhibition (TR-FRET)” value under setting [1] is 31.8155.

With `COc1ccc(F)c(CN(CCCNc2ccnc3cc(Cl)ccc23)Cc2ccccc2)c1` [SJ000520445], the “percent inhibition (TR-FRET)” value under setting [2] came to 4.762.

Take `Clc1ccc2c(NCCCCN(Cc3ccccc3)Cc3csc4ccccc34)ccnc2c1` [SJ000520446]: under setting [1], the “percent inhibition (TR-FRET)” value came to 33.9765.

As to `COc1ccc(OC(F)(F)F)cc1CN(CCCCNc1ccnc2cc(Cl)ccc12)Cc1ccccc1` [SJ000520447], under setting [1], the “percent inhibition (TR-FRET)” value amounted to 26.6585.

For `Clc1ccc2c(NCCCCN(Cc3ccccc3)Cc3nccs3)ccnc2c1` [SJ000520448], the “percent inhibition (TR-FRET)” value under setting [1] is -1.698.

For the molecule `Cc1ccc(F)cc1CN(CCCCNc1ccnc2cc(Cl)ccc12)Cc1ccccc1` [SJ000520449], under setting [1], the “percent inhibition (TR-FRET)” value is recorded as 42.3236.

In the case of `COc1ccc(C(F)(F)F)cc1CN(CCCNc1ccnc2cc(Cl)ccc12)Cc1ccccc1` [SJ000520450], under setting [2], the “percent inhibition (TR-FRET)” value is 23.1782.
